Article PMC11510666, “Thiazolidinedione-Conjugated Lupeol Derivatives as Potent Anticancer Agents Through a Mitochondria-Mediated Apoptotic Pathway” (Molecules, 2024)
Several values for one entry are separate records, joined by “and”; a condition that tells them apart may be missing. Equal entries are not always repeated.

Experiments:
[1] = test system: human breast cancer MCF-7; experiment: MTT antiproliferative assay, MCF-7; format: cell-based; conditions: 48 h, mean ± SD, three independent experiments
Protocol: (§1) These cell lines were cultured in Dulbecco's Modified Eagle Medium containing 10% (v/v) fetal bovine serum (FBS, Wisent) and 1% (v/v) Penicillin-Streptomycin Solution mixture (Beyotime, Shanghai, China) at 37 °C under 5% CO2. An MTT assay evaluated the cytotoxicity of lupeol derivatives toward the A549, MCF-7, HepG2, and LO2 cell lines. The cells were inoculated into 96-well plates (3 × 10^3 cells/well) and cultured for 24 h at 37 °C in 5% CO2. After that, a gradient concentration of the test drug was added to continue the incubation for 48 h. Subsequently, the MTT solution continued to incubate with the cells for 4 h. Afterward, the upper waste layer was discarded, and DMSO was added ([…], Tianjin, China). After the formazan completely dissolved, the absorbance of each well at 490 nm was measured with a microplate reader. The mean values were derived from three independent experiments.

human lung cancer A549 = experiment: MTT antiproliferative assay, A549; format: cell-based; conditions: 48 h, mean ± SD, three independent experiments
Protocol: as §1

human hepatic LO2 cells = conditions: for IC50: read-out: IC50 LO2, MTT, 48 h, mean ± SD, three independent experiments
Protocol: as §1

[2] = test system: human hepatocarcinoma HepG2; experiment: MTT antiproliferative assay, HepG2; format: cell-based; conditions: for SI (selectivity index): IC50 values on L02 cells/HepG2 cells; for IC50: MTT, 48 h, mean ± SD, three independent experiments
Protocol: as §1

HepG2 cells [3] = experiment: Annexin V-FITC/PI double staining, flow cytometry; format: cell-based, human; conditions: HepG2, 48 h, blank control 5.75%
Protocol: (§2) To further evaluate compound 12i-induced HepG2 cell apoptosis, HepG2 cells were treated with this compound (at 0, 2, 4, and 8 μM), followed by staining with Acridine Orange/Ethidium bromide (AO/EB). […] Subsequently, we used Annexin V-FITC/PI double staining to characterize the effect of compound 12i based on the total apoptosis rate of HepG2 cells.
HepG2 cells were inoculated into 6-well plates for 24 h, attached via cell adhesion, and then treated with 12i (0, 2, 4, and 8 μM) for 48 h. The cells were harvested and treated with Annexin V-FITC/PI staining solution, and the data were gathered using a flow cytometer (FACS Calibur, BD, Milpitas, CA, USA).

HepG2 cells [4] = conditions: HepG2, 2, 4 and 8 μM, increasing concentration
Protocol: as §2

HepG2 cells [5] = conditions: HepG2, 2, 4 and 8 μM, 48 h, DCFH-DA
Protocol: After the cells were washed with PBS, the supernatant was removed and incubated with 500 μL of 10 μm/L DCFH-DA solution at 25 °C for 20 min, and the data were gathered using a flow cytometer.
After the cells were washed with PBS, the supernatant was removed and incubated with 500 μL of 10 μm/L DCFH-DA solution at 25 °C for 20 min, and the samples were collected and imaged using confocal microscopy.

[6] = test system: Bax, Bcl-2, cleaved caspase-7, cleaved caspase-9 in HepG2 cells; conditions: HepG2, 2, 4 and 8 μM, 48 h, Western blot
Protocol: The GAPDH expression level was used as an internal control group.
(§3) HepG2 cells were seeded in 6-well plates at a density of 1 × 10^6 overnight and treated with 12i (2, 4, and 8 μM) for 48 h. They were then washed twice with cooled PBS to remove the medium and lysed using a lysis buffer containing RIPA (Beyotime, Shanghai, China). The protein levels were quantified using a bicinchoninic acid protein assay kit (Beyotime, Shanghai, China). The proteins were separated via SDS-PAGE electrophoresis and transferred to PVDF membranes (Beyotime, Shanghai, China). After blocking with 5% skim milk for 2 h, the membranes were incubated with the primary antibody overnight at 4 °C, followed by 2 h with the specific secondary antibody. The antibodies were sourced commercially, including Bax (5023T, Cell Signaling Technology, Danvers, MA, USA), Bcl2 (3498T, Cell Signaling Technology, Danvers, MA, USA), Caspase-7 (12827T, Cell Signaling Technology, Danvers, MA, USA), Caspase-9 (9508T, Cell Signaling Technology, Danvers, MA, USA), Cleaved-Caspase-7 (8438T, Cell Signaling Technology, Danvers, MA, USA), Cleaved-Caspase-9 (7237T, Cell Signaling Technology, Danvers, MA, USA), GAPDH (2118T, Cell Signaling Technology, Danvers, MA, USA), PI3K (4249T, Cell Signaling Technology, Danvers, MA, USA), p-PI3K (4228T, Cell Signaling Technology, Danvers, MA, USA), AKT (4691T, Cell Signaling Technology, Danvers, MA, USA), p-AKT (4060T, Cell Signaling Technology, Danvers, MA, USA), mTOR (2972T, Cell Signaling Technology, Danvers, MA, USA). Immunoreactive bands were visualized using BeyoECL Plus (Beyotime, Shanghai, China) and scanned in a ChemiDoc MP Imaging System (Bio-Rad, Shanghai, China).

[7] = test system: P-Akt, P-PI3K, P-mTOR in HepG2 cells; conditions: HepG2, 2, 4 and 8 μM, 48 h, Western blot, dose-dependent
Protocol: Therefore, Western blotting was conducted to determine the expression of the key proteins Akt, P-Akt, PI3K, P-PI3K, mTOR, and P-mTOR.
as §3

HepG2 cells [8] = experiment: Mitochondrial membrane potential, JC-1 staining; format: cell-based, human
Description: MMP depolarization is one of the landmark events of apoptosis. To investigate the impact of 12i on MMP depolarization in HepG2 cells, we used 5,5′,6,6,6,6′-tetrachloro-1,1′,3,3′-tetraethylioiodine carbocyan (JC-1) staining. When the mitochondrial membrane potential is high, JC-1 aggregates in the substrate to form a polymer (J-aggregates), which produces red fluorescence. When the mitochondrial membrane potential is low, JC-1 cannot accumulate in the mitochondrial matrix and exists as a monomer to produce green fluorescence.
HepG2 cells were inoculated into 6-well plates for 24 h, attached via cell adhesion, and then treated with 12i (0, 2, 4, and 8 μM) for 48 h. The cells were cleaned with PBS and treated with JC-1 solution at 25 °C for 20 min, and the data were gathered using a flow cytometer.
HepG2 cells were inoculated into 6-well plates for 24 h, attached via cell adhesion, and then treated with 12i (0, 2, 4, and 8 μM) for 48 h. The cells were cleaned with PBS and treated with JC-1 solution at 25 °C for 20 min, and the samples were collected and imaged using confocal microscopy.

Row | Compound | IC50 [1] [µM] | IC50 (human lung cancer A549) [µM] | IC50 (human hepatic LO2 cells) [µM] | SI (selectivity index) [2] | IC50 [2] [µM] | further results
1 | C=C(C)C1CCC2(C)CCC3(C)C(CCC4C5(C)CCC(OC(=O)NCCNC(=O)CN6C(=O)SC(=Cc7ccc(Cl)cc7)C6=O)C(C)(C)C5CCC43C)C12 (stereo not drawn) [Compound 12b, Lupeol-3-[(1-Ethylenediaminyl)-4]-5-(4-Chlorobenzylidene)-2,4-Thiazolidinedione] | 19.1 ± 1.63 | 17.1 ± 1.28 | 76.87 ± 0.69 | 4.35 | 17.7 ± 0.79 | –
2 | C=C(C)C1CCC2(C)CCC3(C)C(CCC4C5(C)CCC(OC(=O)N6CCN(C(=O)CN7C(=O)SC(=Cc8ccccc8OC)C7=O)CC6)C(C)(C)C5CCC43C)C12 (stereo not drawn) [Compound 9e, Lupeol-3-[(1-Piperazinyl)-4]-5-(2-Methoxybenzylidene)-2,4-Thiazolidinedione] | 18.6 ± 1.27 | 10.4 ± 0.38 | 63.3 ± 1.14 | 3.83 | 16.5 ± 1.26 | –
3 | C=C(C)C1CCC2(C)CCC3(C)C(CCC4C5(C)CCC(OC(=O)N6CCN(C(=O)CN7C(=O)SC(=CC(C)C)C7=O)CC6)C(C)(C)C5CCC43C)C12 (stereo not drawn) [Compound 9i, Lupeol-3-[(1-Piperazinyl)-4]-5-(2-Methylpropylidene)-2,4-Thiazolidinedione] | 20.1 ± 1.59 | 13.8 ± 0.84 | 35.4 ± 0.72 | 5.12 | 6.91 ± 0.31 | –
4 | C=C(C)C1CCC2(C)CCC3(C)C(CCC4C5(C)CCC(OC(=O)NCCNC(=O)CN6C(=O)SC(=CC(C)C)C6=O)C(C)(C)C5CCC43C)C12 (stereo not drawn) [Compound 12i, Lupeol-3-[(1-Ethylenediaminyl)-4]-5-(2-Methylpropylidene)-2,4-Thiazolidinedione] | 8.74 ± 0.34 | 10.1 ± 0.62 | 29.2 ± 0.53 | – | 4.4 ± 0.02 | total apoptosis rate (HepG2 cells [3]; 2 μM): 11.46%; total apoptosis rate (HepG2 cells [3]; 4 μM): 22.40%; total apoptosis rate (HepG2 cells [3]; 8 μM): 60.50%; morphological variations after AO/EB staining (HepG2 cells [4]): the green fluorescence gradually weakened and turned orange–red; ROS production (HepG2 cells [5]): induces ROS production dose-dependently; Bax expression ([6]; GAPDH internal control): upregulate; Bcl-2 expression ([6]; GAPDH internal control): downregulate; cleaved caspase-7 expression level ([6]; dose dependently): activated; cleaved caspase-9 expression level ([6]; dose dependently): activated; cytotoxicity to human hepatic cell LO2 (in words) (human hepatic LO2 cells): weakly cytotoxic; potency against HepG2 relative to lupeol ([2]; HepG2, IC50 lupeol / IC50 compound): 9.9 fold and 9.91 fold; phosphorylation level of P-Akt [7]: reduce the phosphorylation levels; phosphorylation level of P-PI3K [7]: reduce the phosphorylation levels; phosphorylation level of P-mTOR [7]: reduce the phosphorylation levels; effect on mitochondrial membrane potential (Δψm) (HepG2 cells [8]; HepG2, 2, 4 and 8 μM, JC-1 fluorescence microscopy): significantly reduce Δψm; monomer rate of JC-1 (HepG2 cells [8]; HepG2, 48 h, 8 μM, blank control 1.95%): 35.8%
5 | C=C(C)C1CCC2(C)CCC3(C)C(CCC4C5(C)CCC(OC(=O)CN6C(=O)SC(=Cc7ccccc7OC)C6=O)C(C)(C)C5CCC43C)C12 (stereo not drawn) [Compound 6e, Lupeol-3-[(1-Ethyl)-2]-5-(2-Methoxybenzylidene)-2,4-Thiazolidinedione] | 12.5 ± 0.74 | 9.43 ± 0.74 | 70.8 ± 0.93 | 4.57 | 15.5 ± 0.86 | –
6 | C=C(C)C1CCC2(C)CCC3(C)C(CCC4C5(C)CCC(OC(=O)NCCNC(=O)CN6C(=O)SC(=Cc7ccc(C)cc7)C6=O)C(C)(C)C5CCC43C)C12 (stereo not drawn) [Compound 12c, Lupeol-3-[(1-Ethylenediaminyl)-2]-5-(4-Methylbenzylidene)-2,4-Thiazolidinedione] | 14.3 ± 0.78 | 13.4 ± 0.79 | 40.68 ± 0.31 | 3.79 | 10.7 ± 0.12 | –
